Data on 14 compounds can be found in patent US20250162973A1, “METHODS OF SYNTHESIS AND USES OF AGRIMOL COMPOUNDS” (Versitech Limited, priority 2022, published 2025).

Where two headings read alike, the source gives them in different places. Bounds are passed on as bounds.

One data set has as its system H460 cell line. The experiment in a line: MTT cell viability assay. The format is cell-based, human. The settings on record: MTT method. On the procedure: (§1) SUNE1 (nasopharyngeal carcinoma), AGS (gastric adenocarcinoma), HeLa (cervix adenocarcinoma), HepG2 (hepatocellular carcinoma), U-87 MG (human glioblastoma cell), U2OS (osteosarcoma), MCF-7 (breast adenocarcinoma), MDA-MB-231 (breast adenocarcinoma), HCT116 (colorectal carcinoma), SW480 (colorectal adenocarcinoma), NCI-H460 (large cell lung carcinoma), NCI-H1650 (adenocarcinoma lung carcinoma), HCC827 (adenocarcinoma lung carcinoma), A549 (lung carcinoma), and CCD-19Lu (human lung fibroblast normal cell) were all obtained from American Type Culture Collection (ATCC, Manassas, VA, USA). Minimum Essential Media (MEM, Gibco®, ThermoFisher Scientific), Dulbecco's Modified Eagle Medium (DMEM, Gibco®, ThermoFisher Scientific), and RPMI-1640 Medium (Gibco®, ThermoFisher Scientific) supplemented with 10% Fetal Bovine Serum (Gibco®, ThermoFisher Scientific), and 100 U/mL penicillin-streptomycin (Gibco™, ThermoFisher Scientific) were used for cell culture. Cells were placed into an incubator with 5% CO2 that temperature was set at 37° C. For subculturing cells, 0.05% Trypsin-EDTA (Gibco®) was used for detaching and a subcultivation ratio of 1:5 was used.
(§2) The cell viability assay was performed by a typical MTT assay. Briefly, 5*10^3 cells were seeded in the 96-well flat bottom plate and allowed to attach overnight. After drug treatment with a serial dilution from 100 μM for 48 h, 10 μL of MTT solution (5 mg/ml prepared in PBS, filtered) was added into each well and incubate for 4 h at 37° C. The formed formazan was then dissolved with SDS solution (10% SDS in 10 mM HCl) and followed the determination of absorbance at 590 nm by a microplate reader. The change in cell viability was then calculated for each drug concentration, then normalized to control. Dose response curves from each assay were fit to a Boltzmann sigmoidal function (GraphPad Prism8, version8.0.0). The cytotoxicity of AGB and its derivatives was determined by the calculation of IC50 value (half maximal inhibitory concentration) from fitted curves, which was the concentration of drug induced 50% cell viability.

A further data set has as its system HeLa cell line. Kind of data set: MTT cell viability assay. It counts as cell-based, human. Conditions: MTT method. On the procedure: as §1, §2
The test system of another data set is A549. Kind of data set: MTT cell viability assay. It counts as cell-based. The settings on record: Homo sapiens, MTT method, 48h, Table 6. On the procedure:
as §1, §2

For a further data set, the system named is AGS cell line. Kind of data set: MTT cell viability assay. The format is cell-based, human. Conditions: MTT method, 48 h. On the procedure: as §1, §2
The test system of a further data set is MDA-MB-231 cell line. The experiment in a line: MTT cell viability assay. The format is cell-based, human. Conditions: MTT method, 48 h. How it is done: as §1, §2
Data set [1] relates to human cancer cell lines (MDA-MB-231, MCF-7, HepG2, HeLa, AGS, HCT116, SW480, SUNE-1, H460, HCC827, H1650, A549). Kind of data set: MTT cell viability assay, panel of human cancer cell lines. It counts as cell-based. The settings on record: four different cancer cell lines, 48-h treatment. How it is done:
as §1, §2

Data set [2] concerns Golgi complex in NCI-H460 cells. Kind of data set: Golgi integrity, anti-GM130 immunostaining. It counts as cell-based, human. An excerpt:
Based on the ProTargetMiner analysis results, the mitochondrial function and ER stress were studied. […] In cells, proteins were initially synthesized in ER and transport to Golgi apparatus for processing. When a drug blocked ER to Golgi trafficking, the Golgi apparatus would suffer from a dramatic redistribution and disruption. This blocking causes accumulation of unmatured proteins in the ER, thereby disrupting the structure of Golgi apparatus and inducing ER stress. The Golgi disrupting agent, brefeldin A (BFA) was used as a positive control drug. […] The effects of BFA and AGB on the integrity of the Golgi complex were assessed by immunostaining using an anti-GM130 antibody, one of Golgi markers.

The mark [3] stands for this setting: Homo sapiens, NCI-H460, 48h, Table 6, read-out: IC50 H460.
The mark [4] stands for this setting: Homo sapiens, HeLa, 48h, Table 6, read-out: IC50 HeLa.
Where [5] appears, read: 48 h, read-out: IC50 H460 cell line.
Where [6] appears, read: 48 h, read-out: IC50 HeLa cell line.

`CCCC(=O)c1c(O)c(Cc2c(O)c(Cc3c(O)c(C)c(OC)c(C(=O)CCC)c3O)c(O)c(C(=O)C3CCCCC3)c2O)c(O)c(C)c1OC`: the IC50 turned out to be 2.3 µM in the data set on H460 cell line (setting [3]) and 1.44 µM in the data set on HeLa cell line (setting [4]).

As for `CCCC(=O)c1c(O)c(Cc2c(O)c(Cc3c(O)c(C)c(OC)c(C(=O)CCC)c3O)c(O)c(C(=O)c3ccccc3)c2O)c(O)c(C)c1OC`, the IC50 in the data set on A549 is 19.3 µM; with H460 cell line (setting [3]), 2.75 µM; with HeLa cell line (setting [4]) it was 1.23 µM.

Turning to `CCCC(=O)c1c(O)c(Cc2c(O)c(C)c(O)c(Cc3c(O)c(C)c(OC)c(C(=O)CCC)c3O)c2O)c(O)c(C)c1OC`, the IC50 in the data set on H460 cell line (setting [3]) came to 3.78 µM.

Turning to `CCC(=O)c1c(O)c(Cc2c(O)c(Cc3c(O)c(C)c(OC)c(C(=O)CC)c3O)c(O)c(C(=O)CCC(O)OC)c2O)c(O)c(C)c1OC` (stereo not drawn), the IC50 in the data set with A549 came out at 41.9 µM; in the data set with H460 cell line (setting [3]) it was 4.67 µM; in the data set with HeLa cell line (setting [4]), 3.56 µM.

For the compound `CCCC(=O)c1c(O)c(Cc2c(O)c(C(=O)OC)c(O)c(C(=O)C(C)C)c2O)c(O)c(C)c1OC`, the IC50 in the data set on H460 cell line (setting [3]) came out at 1.14 µM.

Take `CCCC(=O)c1c(O)c(Cc2c(O)c(Cc3cc(OC)c(OC)c(OC)c3)c(O)c(C(=O)C(C)CC)c2O)c(O)c(C)c1OC` (stereo not drawn): the IC50 in the data set with A549 is 8.53 µM; in the data set with H460 cell line (setting [3]), 2.3 µM; with HeLa cell line (setting [4]), 2.06 µM.

As to `CCCC(=O)c1c(O)c(Cc2c(O)c(C(=O)c3ccccc3)c(O)c(C(=O)c3ccccc3)c2O)c(O)c(C)c1OC`, the IC50 in the data set with A549 amounted to 28.4 µM; in the data set on H460 cell line (setting [3]), 3.13 µM; in the data set with HeLa cell line (setting [4]) it was 3.24 µM.

Consider `CCC(C)C(=O)c1c(O)c(Cc2ccccc2O)c(Cl)c(C(=O)OC)c1O` (stereo not drawn), for which, in the data set with H460 cell line (setting [3]), the IC50 was found to be 2.05 µM.

In the case of `CCC(C)C(=O)c1c(O)c(Cc2cc(C)ccc2O)c(O)c(C(=O)OC)c1O` (stereo not drawn), the results for the IC50 with A549, in the data set with H460 cell line (setting [3]) and with HeLa cell line (setting [4]) were 20.5 µM, 2.99 µM and 3.96 µM, respectively.

Consider `CCCC(=O)c1c(O)c(Cc2c(O)c(C)c(OC)c(C(=O)CCC)c2O)c(O)c(Cc2c(O)c(C)c(OC)c(C(=O)CCC)c2O)c1O` [AGC, Agrimol C], for which the half-inhibitory concentration (IC50) with AGS cell line came to 8.01 µM; in the data set on MDA-MB-231 cell line, 2.44 µM; in the data set on H460 cell line (setting [5]) it was 1.76 µM; in the data set on HeLa cell line (setting [6]) it was 1.52 µM.

As for `CCCC(=O)c1c(O)cc(O)c(C)c1OC` [AGS], the IC50 in the data set on AGS cell line (Homo sapiens, AGS) was above 50 µM; with MDA-MB-231 cell line (Homo sapiens, MDA-MB-231), above 50 µM; in the data set with H460 cell line (Homo sapiens, NCI-H460, 48 h, read-out: IC50 H460 cell line), above 50 µM; in the data set with HeLa cell line (Homo sapiens, HeLa, 48 h, read-out: IC50 HeLa cell line), above 50 µM. Moreover, the “cytotoxicity compared with AGB” value in data set [1] is on record as “significantly lower cytotoxicity than AGB”.

Turning to `C[C@H]1CCC/C=C/[C@@H]2C[C@H](O)C[C@H]2[C@H](O)/C=C/C(=O)O1` [BFA, brefeldin A], the “GM130 distribution (Golgi integrity)” value in data set [2] is on record as “redistribution of GM130”.

For Agrimol H [AGH], the IC50 is 5.43 µM in the data set on AGS cell line, 2.84 µM in the data set on MDA-MB-231 cell line, 2.66 µM in the data set on H460 cell line (setting [5]) and 1.55 µM with HeLa cell line (setting [6]).

With Agrimol L [AGL], the IC50 is above 50 µM in the data set with AGS cell line, above 50 µM with MDA-MB-231 cell line, above 50 µM in the data set with H460 cell line (setting [5]) and 35.1 µM with HeLa cell line (setting [6]). The “cytotoxicity compared with AGB” value in data set [1] is recorded as “significantly lower cytotoxicity than AGB”.
